How the values were obtained:
Test in all cases: relative viability (nuclei count vs DMSO), 5 days (fraction); higher = more cells survive
[1] = compound: CCC1=CN=CN=C1N2CCN(CC2)CC3=NC4=C(N3)C=C(C=C4)C(F)(F)F + CC(=O)Nc1cccc(-n2c(=O)n(C3CC3)c(=O)c3c(Nc4ccc(I)cc4F)n(C)c(=O)c(C)c32)c1 [Trametinib] (partner 0.02 µM)
Summary of the method: (§1)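 One day after seeding in 1536-well plates, lung cancer cell lines were dosed by pin tool. Dosing was either single-drug or a fixed anchor-drug dose plus five library-drug doses (not always all listed) in √10 steps. After 5 days, nuclei were stained in one fix-and-stain step and counted on 4× images, and relative viability is the nuclei count of treated wells over that of vehicle wells, given as the median of duplicate plates.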

[2] = compound: CCC1=CN=CN=C1N2CCN(CC2)CC3=NC4=C(N3)C=C(C=C4)C(F)(F)F + COc1cccc2cc(-c3nc([C@H]4CC[C@H](C(=O)O)CC4)n4ncnc(N)c34)[nH]c12 [OSI-027] (partner 0.5 µM)
Summary of the method: as §1

Mirin + Linsitinib = compound: N=C1NC(=O)/C(=C/c2ccc(O)cc2)S1 [Mirin] + C[C@]1(O)C[C@@H](c2nc(-c3ccc4ccc(-c5ccccc5)nc4c3)c3c(N)nccn32)C1 [Linsitinib] (partner 1 µM)
Summary of the method: as §1

Mirin + Tozasertib = compound: N=C1NC(=O)/C(=C/c2ccc(O)cc2)S1 [Mirin] + Cc1cc(Nc2cc(N3CCN(C)CC3)nc(Sc3ccc(NC(=O)C4CC4)cc3)n2)n[nH]1 [Tozasertib] (partner 0.1 µM)
Summary of the method: as §1

Cell Line | relative viability ([1]; first compound 0.04 µM) | relative viability ([1]; first compound 0.1265 µM) | relative viability ([1]; first compound 0.4 µM) | relative viability ([1]; first compound 1.265 µM) | relative viability ([1]; first compound 4 µM) | relative viability ([2]; first compound 0.04 µM) | relative viability ([2]; first compound 0.1265 µM) | relative viability ([2]; first compound 0.4 µM) | relative viability ([2]; first compound 1.265 µM) | relative viability ([2]; first compound 4 µM) | relative viability (Mirin + Linsitinib; first compound 0.25 µM) | relative viability (Mirin + Linsitinib; first compound 0.7906 µM) | relative viability (Mirin + Linsitinib; first compound 2.5 µM) | relative viability (Mirin + Linsitinib; first compound 7.906 µM) | relative viability (Mirin + Linsitinib; first compound 25 µM) | relative viability (Mirin + Tozasertib; first compound 0.25 µM) | relative viability (Mirin + Tozasertib; first compound 0.7906 µM) | relative viability (Mirin + Tozasertib; first compound 2.5 µM) | relative viability (Mirin + Tozasertib; first compound 7.906 µM) | relative viability (Mirin + Tozasertib; first compound 25 µM)
NCI-H1437 | 0.539 | 0.42 | 0.421 | 0.423 | 0.438 | 0.857 | 0.847 | 0.777 | 0.667 | 0.749 | 1.09 | 1.01 | 1.07 | 0.784 | 0.33 | 0.451 | 0.407 | 0.372 | 0.343 | 0.377
NCI-H1651 | 0.884 | 0.855 | 0.846 | 0.791 | 0.797 | 0.805 | 0.795 | 0.641 | 0.757 | 0.788 | 1.06 | 1.01 | 0.982 | 0.741 | 0.856 | 0.667 | 0.788 | 0.622 | 0.489 | 0.587
NCI-H1666 | 0.892 | 0.825 | 0.877 | 0.879 | 0.792 | 0.736 | 0.81 | 0.816 | 0.803 | 0.873 | 0.734 | 0.853 | 0.791 | 0.646 | 0.517 | 0.625 | 0.621 | 0.582 | 0.519 | 0.518
NCI-H1734 | 0.581 | 0.668 | 0.604 | 0.65 | 0.709 | 0.601 | 0.557 | 0.58 | 0.513 | 0.714 | 0.851 | 0.852 | 0.875 | 0.739 | 0.765 | 0.262 | 0.285 | 0.272 | 0.228 | 0.223
NCI-H1755 | 0.828 | 0.769 | 0.759 | 0.68 | 0.799 | 0.712 | 0.691 | 0.717 | 0.458 | 0.663 | 1.03 | 1.12 | 1.01 | 1.06 | 1.1 | 0.682 | 0.587 | 0.655 | 0.462 | 0.606
NCI-H1793 | 0.459 | 0.4 | 0.397 | 0.362 | 0.349 | 0.22 | 0.301 | 0.25 | – | 0.259 | 0.816 | 0.794 | 0.902 | 0.947 | 0.641 | 0.341 | – | 0.619 | 0.283 | 0.178
NCI-H1915 | 0.286 | 0.337 | 0.293 | 0.248 | 0.287 | 0.612 | 0.629 | 0.605 | 0.49 | 0.587 | 1.12 | – | 1.12 | 1.06 | 1.19 | 0.44 | – | 0.413 | 0.35 | 0.289

Source: the supplement of paper PMC10307832
